In patent US9765105B2, “Macrolide compound” (Pulike Biological Engineering, Inc., priority 2013, dated 2017):

Key:
[1] = tested on: Streptococcus pneumoniae CMCC 31203; experiment: in vivo antibacterial test, survival of infected mice; parameters: species or system BALB/c mice; details: mice infected i.p. with Streptococcus pneumoniae; 5 mg per kg subcutaneous for 3 consecutive days; observed until the seventh day
[2] = tested on: Streptococcus equines CVCC556; experiment: in vitro susceptibility, MIC by mini broth dilution; type: cell-based; details: strain CVCC556
Procedure, shortened: (§1)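 Broth microdilution MIC, NCCLS method: 11-point two-fold DMSO compound series, duplicate rows, well 12 as control. Inoculum from 20 h, 35° C plate cultures, diluted 1:200 in broth.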

[3] = tested on: Pasteurella multocida CVCC399; experiment: as above; type: cell-based; details: strain CVCC399
Procedure, shortened: as §1

Haemophilus parasuis = experiment: as above; type: cell-based
Procedure, shortened: as §1

[4] = tested on: Actinobacillus pleuropneumoniae CVCC262; experiment: as above; type: cell-based; details: strain CVCC262
Procedure, shortened: as §1

[5] = acute oral toxicity test, LD50 by improved karber method; details: for LD50: per os, gavaged once, in 0.2% sodium carboxymethylcellulose, observed 7 days; for LD50 at 7 days: both, Konmin, mouse, in vivo, po
[6] = tested on: Staphylococcus aureus CVCC26003; experiment: in vitro susceptibility, MIC by mini broth dilution; type: cell-based; details: strain CVCC26003
Procedure, shortened: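 S. aureus CVCC26003 was revived and subcultured twice, 20 h each at 35° C, on solid medium, then diluted 1:200 in CAMHB liquid medium. Compounds received an 11-step two-fold DMSO dilution in parallel duplicate rows. MIC was read by mini broth dilution per NCCLS guidance.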

CCCNC[C@]1(O)[C@H](C)O[C@@H](O[C@H]2[C@H](C)[C@@H](O[C@@H]3O[C@H](C)C[C@H](N(C)C)[C@H]3O)[C@](C)(O)C[C@@H](C)NC[C@H](C)[C@@H](O)[C@](C)(O)[C@@H](CC)OC(=O)[C@@H]2C)C[C@@]1(C)OC [syzx-1, (2R,3S,4R,5S,8R,10R,11R,12S,13S,14R)-13-[(2,6-dideoxy-3-C-methyl-3-O-methyl-4-C-[(propylamino)methyl]-α-L-ribopyranosyl)oxy]-2-ethyl-3,4,10-trihydroxy-3,5,8,10,12,14-hexamethyl-11-[[3,4,6-trideoxy-3-(dimethylamino)-β-D-xylo-hexopyranosy]oxy]-1-oxa-7-azacyclopentadecan-15-one]
Animal survival rate [1]: 80% | Animal survival rate (surviving/total animals) [1]: 8/10 | MIC values, Streptococcus equines CVCC556 [2]: 0.125 ug/mi | MIC values, Pasteurella multocida CVCC399 [3]: 1 ug/mi | MIC values, Haemophilus parasuis (Haemophilus parasuis): 0.125 ug/mi | MIC values, Actinobacillus pleuropneumoniae CVCC262 [4]: 0.125 ug/mi | LD50 [5]: 2584.8 mg/kg | MIC values, Staphylococcus aureus CVCC26003 [6]: 0.125 ug/mi

CCNC[C@]1(O)[C@H](C)OC(O[C@@H]2[C@@H](C)[C@@H](O[C@@H]3O[C@H](C)C[C@H](N(C)C)[C@H]3O)[C@](C)(O)C[C@@H](C)NC[C@@H](C)[C@H](O)[C@](C)(O)[C@H](CC)OC(=O)[C@@H]2C)C[C@@]1(C)OC (stereo partly drawn) [syzx-10, (2R,3S,4R,5S,8R,10R,11R,12S,13S,14R)-13-[(2,6-dideoxy-3-C-methyl-3-O-methyl-4-C-[(ethylamino)methyl]-α-L-ribopyranosyl)oxy]-2-ethyl-3,4,10-trihydroxy-3,5,8,10,12,14-hexamethyl-11-[[3,4,6-trideoxy-3-(dimethylamino)-β-D-xylo-hexopyranosy]oxy]-1-oxa-7-azacyclopentadecan-15-one]
Animal survival rate (surviving/total animals) [1]: 9/10 | LD50 at 7 days [5]: 2810 mg/kg

CC[C@@H]1OC(=O)[C@H](C)[C@H](OC2C[C@@](C)(OC)[C@](O)(CNC(C)C)[C@H](C)O2)[C@@H](C)[C@@H](O[C@@H]2O[C@H](C)C[C@H](N(C)C)[C@H]2O)[C@](C)(O)C[C@@H](C)NC[C@@H](C)[C@H](O)[C@]1(C)O (stereo partly drawn) [syzx-11, (2R,3S,4R,5S,8R,10R,11R,12S,13S,14R)-13-[(2,6-dideoxy-3-C-methyl-3-O-methyl-4-C-[(isopropylamino)methyl]-α-L-ribopyranosyl)oxy]-2-ethyl-3,4,10-trihydroxy-3,5,8,10,12,14-hexamethyl-11-[[3,4,6-trideoxy-3-(dimethylamino)-β-D-xylo-hexopyranosy]oxy]-1-oxa-7-azacyclopentadecan-15-one]
Animal survival rate (surviving/total animals) [1]: 8/10 | LD50 at 7 days [5]: 4200 mg/kg

CC[C@@H]1OC(=O)[C@H](C)[C@H](OC2C[C@@](C)(OC)[C@](O)(CNCC(C)C)[C@H](C)O2)[C@@H](C)[C@@H](O[C@@H]2O[C@H](C)C[C@H](N(C)C)[C@H]2O)[C@](C)(O)C[C@@H](C)NC[C@@H](C)[C@H](O)[C@]1(C)O (stereo partly drawn) [syzx-12, (2R,3S,4R,5S,8R,10R,11R,12S,13S,14R)-13-[(2,6-dideoxy-3-C-methyl-3-O-methyl-4-C-[(isobutylamino)methyl]-α-L-ribopyranosyl)oxy]-2-ethyl-3,4,10-trihydroxy-3,5,8,10,12,14-hexamethyl-11-[[3,4,6-trideoxy-3-(dimethylamino)-β-D-xylo-hexopyranosy]oxy]-1-oxa-7-azacyclopentadecan-15-one]
Animal survival rate (surviving/total animals) [1]: 8/10 | LD50 at 7 days [5]: 4310 mg/kg

CC[C@@H]1OC(=O)[C@H](C)[C@H](OC2C[C@@](C)(OC)[C@](O)(CNC(C)(C)C)[C@H](C)O2)[C@@H](C)[C@@H](O[C@@H]2O[C@H](C)C[C@H](N(C)C)[C@H]2O)[C@](C)(O)C[C@@H](C)NC[C@@H](C)[C@H](O)[C@]1(C)O (some centres unmarked) [syzx-14]
Animal survival rate (surviving/total animals) [1]: 8/10 | LD50 at 7 days [5]: 2590 mg/kg

CC[C@@H]1OC(=O)[C@H](C)[C@H](OC2C[C@@](C)(OC)[C@](O)(CN3CCCCC3)[C@H](C)O2)[C@@H](C)[C@@H](O[C@@H]2O[C@H](C)C[C@H](N(C)C)[C@H]2O)[C@](C)(O)C[C@@H](C)NC[C@@H](C)[C@H](O)[C@]1(C)O (stereo partly drawn) [syzx-15, (2R,3S,4R,5S,8R,10R,11R,12S,13S,14R)-13-[(2,6-dideoxy-3-C-methyl-3-O-methyl-4-C-[piperidinylmethyl]-α-L-ribopyranosyl)oxy]-2-ethyl-3,4,10-trihydroxy-3,5,8,10,12,14-hexamethyl-11-[[3,4,6-trideoxy-3-(dimethylamino)-β-D-xylo-hexopyranosy]oxy]-1-oxa-7-azacyclopentadecan-15-one]
Animal survival rate (surviving/total animals) [1]: 8/10 | LD50 at 7 days [5]: 2660 mg/kg

CC[C@@H]1OC(=O)[C@H](C)[C@H](OC2C[C@@](C)(OC)[C@](O)(CNCC3CC3)[C@H](C)O2)[C@@H](C)[C@@H](O[C@@H]2O[C@H](C)C[C@H](N(C)C)[C@H]2O)[C@](C)(O)C[C@@H](C)NC[C@@H](C)[C@H](O)[C@]1(C)O (stereo partly drawn) [syzx-17, (2R,3S,4R,5S,8R,10R,11R,12S,13S,14R)-13-[(2,6-dideoxy-3-C-methyl-3-O-methyl-4-C-[(cyclopropylmethylamino)methyl]-α-L-ribopyranosyl)oxy]-2-ethyl-3,4,10-trihydroxy-3,5,8,10,12,14-hexamethyl-11-[[3,4,6-trideoxy-3-(dimethylamino)-β-D-xylo-hexopyranosy]oxy]-1-oxa-7-azacyclopentadecan-15-one]
Animal survival rate (surviving/total animals) [1]: 8/10 | LD50 at 7 days [5]: 2670 mg/kg

CC[C@@H]1OC(=O)[C@H](C)[C@H](OC2C[C@@](C)(OC)[C@](O)(CNCCOC)[C@H](C)O2)[C@@H](C)[C@@H](O[C@@H]2O[C@H](C)C[C@H](N(C)C)[C@H]2O)[C@](C)(O)C[C@@H](C)NC[C@@H](C)[C@H](O)[C@]1(C)O (some centres unmarked) [syzx-58]
Animal survival rate (surviving/total animals) [1]: 8/10 | LD50 at 7 days [5]: 3550 mg/kg

CCCNC[C@]1(O)[C@H](C)O[C@@H](O[C@H]2[C@H](C)[C@@H](O[C@@H]3O[C@H](C)C[C@H](N(C)C)[C@H]3O)[C@](C)(O)C[C@@H](C)N(CCC)C[C@H](C)[C@@H](O)[C@](C)(O)[C@@H](CC)OC(=O)[C@@H]2C)C[C@@]1(C)OC [syzx-101, (2R,3S,4R,5S,8R,10R,11R,12S,13S,14R)-13-[(2,6-dideoxy-3-C-methyl-3-O-methyl-4-C-[(n-propylamino)-methyl]-α-L-ribopyranosyl)oxy]-2-ethyl-3,4,10-trihydroxy-3,5,8,10,12,14-hexamethyl-7-propyl-11-[[3,4,6-trideoxy-3-(dimethylamino)-β-D-xylo-hexopyranosy]oxy]-1-oxa-7-azacyclopentadecan-15-one]
Animal survival rate [1]: 90% | Animal survival rate (surviving/total animals) [1]: 9/10 | MIC values, Streptococcus equines CVCC556 [2]: 0.125 ug/mi | MIC values, Pasteurella multocida CVCC399 [3]: 0.125 ug/mi | MIC values, Haemophilus parasuis (Haemophilus parasuis): 0.125 ug/mi | MIC values, Actinobacillus pleuropneumoniae CVCC262 [4]: 0.125 ug/mi | LD50 [5]: 3760.6 mg/kg | MIC values, Staphylococcus aureus CVCC26003 [6]: 0.125 ug/mi

CCCN1C[C@@H](C)[C@@H](O)[C@](C)(O)[C@H](CC)OC(=O)[C@H](C)[C@H](OC2C[C@@](C)(OC)[C@](O)(CN(C)CC)[C@H](C)O2)[C@H](C)[C@@H](O[C@@H]2O[C@H](C)C[C@H](N(C)C)[C@H]2O)[C@](C)(O)C[C@H]1C (some centres unmarked) [syzx-213]
Animal survival rate (surviving/total animals) [1]: 9/10 | LD50 at 7 days [5]: 2790 mg/kg
